{"source": "paper PMC12040169", "about": "(PLOS Biology, 2025)", "data": [{"experiment": "in vitro", "conditions": "human, hela cells, % viability", "units": {"viability at 28.5 h, 10 µM": "%"}, "values": [{"smiles": "CS(=O)(=O)Nc1ccc2cc(-c3cccc(C(F)(F)F)c3)cnc2n1", "note": "[CBK085671]", "viability at 28.5 h, 10 µM": 94.1}, {"smiles": "COc1ccc(-c2nc(NS(C)(=O)=O)cc3cccnc23)cc1C", "note": "[CBK085677]", "viability at 28.5 h, 10 µM": 85.5}, {"smiles": "CS(=O)(=O)Nc1cc2cccnc2nc1-c1ccccc1", "note": "[CBK085689]", "viability at 28.5 h, 10 µM": 104}, {"smiles": "COc1cc(-c2nc3ncccc3cc2NS(C)(=O)=O)cc(OC)c1OC", "note": "[CBK085697]", "viability at 28.5 h, 10 µM": 92.7}, {"smiles": "Nc1cc2ccccc2c(-c2ccncc2)n1", "note": "[CBK085708]", "viability at 28.5 h, 10 µM": 99.1}, {"smiles": "Nc1cc2ccccc2c(-c2cc(F)cc(F)c2)n1", "note": "[CBK085711]", "viability at 28.5 h, 10 µM": 97}, {"smiles": "Nc1cc2ccccc2c(-c2ccc(OC(F)(F)F)cc2)n1", "note": "[CBK085725]", "viability at 28.5 h, 10 µM": 99.4}, {"smiles": "CSc1ccc(-c2nc(NC(=O)C(C)C)cc3ccccc23)cc1", "note": "[CBK085735]", "viability at 28.5 h, 10 µM": 95.5}, {"smiles": "CC(C)C(=O)Nc1cc2ccccc2c(-c2cccc(C(F)(F)F)c2)n1", "note": "[CBK085738]", "viability at 28.5 h, 10 µM": 95.6}, {"smiles": "CS(=O)(=O)Nc1cc2ccccc2c(-c2ccncc2)n1", "note": "[CBK085746]", "viability at 28.5 h, 10 µM": 92}, {"smiles": "CS(=O)(=O)Nc1cc2ccccc2c(-c2ccsc2)n1", "note": "[CBK085748]", "viability at 28.5 h, 10 µM": 89.7}, {"smiles": "CS(=O)(=O)Nc1cc2ccccc2c(-c2cccc(C(F)(F)F)c2)n1", "note": "[CBK085754]", "viability at 28.5 h, 10 µM": 92.9}, {"smiles": "CS(=O)(=O)Nc1cc2ccccc2c(-c2ccc(OC(F)(F)F)cc2)n1", "note": "[CBK085757]", "viability at 28.5 h, 10 µM": 121}, {"smiles": "CCNc1cc2ccccc2c(-c2cccc(C(F)(F)F)c2)n1", "note": "[CBK085772]", "viability at 28.5 h, 10 µM": 101}, {"smiles": "CNC(=O)CCCc1[nH]nc(O)c1Cc1c(Cl)cccc1Cl", "note": "[CBK085827]", "viability at 28.5 h, 10 µM": 89.4}, {"smiles": "Nc1cccc(Sc2ncccn2)c1", "note": "[CBK085844]", "viability at 28.5 h, 10 µM": 93.4}, {"smiles": "CC(=O)Nc1ccc(Sc2ccccn2)cc1", "note": "[CBK085853]", "viability at 28.5 h, 10 µM": 101}, {"smiles": "COc1nc(SC)nc2[nH]ccc12", "note": "[CBK085861]", "viability at 28.5 h, 10 µM": 95}, {"smiles": "Cc1nc2ccc(Br)cc2c(=O)n1Cc1cccs1", "note": "[CBK085890]", "viability at 28.5 h, 10 µM": 89.7}, {"smiles": "N#CCC(=O)Nc1ccc(F)c(Cl)c1", "note": "[CBK085905]", "viability at 28.5 h, 10 µM": 95.4}, {"smiles": "CCCCN1C(=O)N(c2nnc(C(C)(C)C)s2)C(=O)C1c1ccc(Cl)c(Cl)c1", "note": "(centres unmarked) [CBK085921]", "viability at 28.5 h, 10 µM": 114}, {"smiles": "Cc1ccc(-c2nc3ccccc3[nH]2)cc1", "note": "[CBK085933]", "viability at 28.5 h, 10 µM": 89.9}, {"smiles": "Fc1c(CN2CCOCC2)cccc1CN1CCOCC1", "note": "[CBK085967]", "viability at 28.5 h, 10 µM": 97.6}, {"smiles": "O=C(Nc1ccccc1F)c1cc(Cl)sc1Cl", "note": "[CBK085969]", "viability at 28.5 h, 10 µM": 93.3}, {"smiles": "CC(=O)c1nnn(-c2cc(Cl)ccc2Cl)c1C", "note": "[CBK085973]", "viability at 28.5 h, 10 µM": 104}, {"smiles": "CC1CCN(C(=S)NC2CC3CCC2C3)CC1", "note": "(centres unmarked) [CBK085998]", "viability at 28.5 h, 10 µM": 91.3}, {"smiles": "CC(C)(C)OC(=O)N1CCC(CNS(=O)(=O)c2cccc3cccnc23)CC1", "note": "[CBK086017]", "viability at 28.5 h, 10 µM": 97.1}, {"smiles": "CC(C)(C)OC(=O)N1CCC(CNS(=O)(=O)c2cc(Cl)sc2Cl)CC1", "note": "[CBK086018]", "viability at 28.5 h, 10 µM": 114}, {"smiles": "N#Cc1ccc(NC(=O)Nc2ccccc2)cc1", "note": "[CBK086045]", "viability at 28.5 h, 10 µM": 87.8}, {"smiles": "O=C(Nc1ccc(Cl)cc1)Nc1ccc(OCC(O)CN2CCCCC2)cc1", "note": "(centres unmarked) [CBK086101]", "viability at 28.5 h, 10 µM": 99.4}, {"smiles": "N#Cc1cnn(-c2ccc(Cl)cc2Cl)c1N", "note": "[CBK086125]", "viability at 28.5 h, 10 µM": 89.2}, {"smiles": "CSCC(CSC)OC(=O)Nc1ccc(Cl)cc1", "note": "[CBK086154]", "viability at 28.5 h, 10 µM": 93.9}, {"smiles": "O=C(O)CC1(CC(=O)N2CCN(C(c3ccccc3)c3ccccc3)CC2)CCCC1", "note": "[CBK086174]", "viability at 28.5 h, 10 µM": 98.7}, {"smiles": "O=C(CC1C(=O)NCCN1C(=O)Nc1ccc(OCc2ccccc2)cc1)Nc1ccc(F)cc1", "note": "(centres unmarked) [CBK086203]", "viability at 28.5 h, 10 µM": 113}, {"smiles": "CCCc1cnc(N2CCN(S(=O)(=O)c3ccc(NC(C)=O)cc3Cl)CC2)nc1", "note": "[CBK086208]", "viability at 28.5 h, 10 µM": 117}, {"smiles": "Clc1ccc(CNCc2cccnc2)cc1", "note": "[CBK086257C]", "viability at 28.5 h, 10 µM": 108}, {"smiles": "CSc1nc(O)nc(-c2ccccc2)n1", "note": "[CBK086310]", "viability at 28.5 h, 10 µM": 95.4}]}, {"experiment": "in vitro", "conditions": "human, hela cells, % viability, bulk resorufin, single well", "units": {"viability at 28.5 h, 10 µM": "%"}, "values": [{"smiles": "c1ccc(-c2ccc3c(c2)OC2(CCNCC2)O3)cc1", "note": "[CBK085501]", "viability at 28.5 h, 10 µM": 103}]}]}
